Measured values reported in article PMC3341351, “Down-Regulation of GABAA Receptor via Promiscuity with the Vasoactive Peptide Urotensin II Receptor. Potential Involvement in Astrocyte Plasticity” (PLoS ONE, 2012).

Legend:
[1] = tested on: β3 GABAAR subunit in human U87 glioma; experiment: Cell surface ELISA of β3 GABAAR subunit in U87 glioma; assay type: cell-based; details: hUII 10^−8 M, 30 min, 37°C, at least 3 independent experiments in triplicates
Experimental: The human cell line from glioblastoma U87 was obtained from the American Type Culture Collection (LGC Standards, Molsheim, France). U87 cells were maintained in DMEM containing 10% FBS and 1% sodium pyruvate. NHA-Astrocytes (Lonza, Walkersville, MD, USA) were cultivated in DMEM culture medium supplemented with 2 mM glutamine, 5 mM HEPES, 1% non essential amino acids, 1% sodium pyruvate, B27, 25 ng/ml EGF, 1% of the antibiotic-antimycotic solution and 10% FBS. All cells were incubated at 37°C in a humidified atmosphere containing 5% CO2. Culture media were replaced every three days.
Cells were plated at 50 000 cells/well in 96-well plates coated with 0.1 mg/ml poly-L-ornithine (Sigma-Aldrich). […] Cells were fixed with 4% PFA in PBS for 5 min at RT, washed in PBS, and then permeabilized in 0.05% triton X100 (only for permeabilized cells) and non specific binding were blocked with PBS containing 1% FBS for 30 min at RT. […] The cells were washed four times with PBS, a colorimetric alkaline phosphatase substrate was added (SuperSignal ELISA, Thermo scientific, Fisher) and the resulting color reaction was measured using a Viktor multilabel plate reader (PerkinElmer, Courtaboeuf, France). Background absorbance from samples transfected with non-tagged receptors or from cells without first antibodies were systematically measured. […]

[2] = tested on: α2β1γ1 GABAAR co-expressed with human UT; experiment: Patch-clamp of Iso-evoked current in CHO-UT expressing α2β1γ1 GABAAR; assay type: cell-based; details: hUII 10^−13 to 10^−7 M; Iso 10^−4 M, 2 s; −60 mV
Experimental: CHO-K1 cell lines were obtained from American Type Culture Collection (Manassas, VA, USA). The human UT stable CHO (CHO-UT) was generously provided by Dr Christophe Dubessy (Inserm, Rouen University, France) et generated by CHO electroporation with 20 µg pIRES-neo2-UT DNA and 500 µg sterile sonicated salmon sperm DNA using the EasyJect One electroporation system (Equibio, Angleur, Belgium), followed by repetitive rounds of limiting dilution of cells in G-418 (400 µg/ml) for selection. Normal or stable CHO was grown in Ham-F12 medium supplemented with 10% FBS, 1% antibiotic-antimicotic solution and 2 mM glutamine, at 37°C in a humidified incubator with an atmosphere of 5% CO2. The stable CHO-UT medium was supplemented with the antibiotic G-418 (40 µg/ml).
For transfection, cells were trypsinized (0.05%), triturated in HamF-12 containing 10% FBS media, pelleted by centrifugation, resuspended in 100 µl solution V for nucleofection by an Amaxa Nucleofector Device (Köln, Germany; set to program U-016). Experiments were performed on normal CHO or on the stable CHO-UT cells and transiently transfected with combinations of cDNA encoding α2β3γ2, α2β3γ1, α2β1γ2, α2β3γ1, α2β3, β3γ2 (4 µg of cDNA total/transfection) GABAAR subunits. Cells were seeded on 14-mm poly-L-lysine-coated glass bottom insert dishes at 5×10^5 cells in a volume of 0.5 ml/dish. […]

## ETPDCFWKYCV (disulfide) [hUII, human urotensin II, synthesized by solid phase methodology]
[1]
  β3-associated GABAAR subunit internalization, without UT319–389: 20%
[2]
  Inhibitory effect on Iso-evoked current, α2β1γ1: less effective
